According to patent US10159676B2, “Induction of tumor hypoxia for cancer therapy” (Virginia Commonwealth University, priority 2008, dated 2018):
Entries after “also recorded” stand apart in the source; their conditions may differ.

Key:
[1] = system: UCI-101 ovarian cancer tumor xenografts; experiment: Real-time measurement of tumor oxygen and blood flow (OxyLite/OxyFlo); type: in vivo, nude mice; settings: 50 mg/kg intraperitoneal
Description: FIG. 3. Tumor blood flow and oxygen content in tumor. Oxygen and blood flow were monitored by OxyFlo and OxyLite system (Optronix, Oxford, UK). Mice were anesthetized with isoflurane and a triple sensor that records temperature, oxygen and blood flow was inserted into tumor and left for 1 hour for recording. Shown are the results of three mice with similar size subcutaneous tumors derived from UCI-101 ovarian cancer cells. Top panels are oxygen level and lower panels are tumor blood flow. Timing of St5c injection was marked.
Nude mice were injected subcutaneously with UCI-101 ovarian cancer cells to form tumor xenografts. Tumor xenografts were subjected to oxygen and blood flow study when tumor size reached 8-10 mm in largest diameter. Tumor was punctured with 25 G needle to make a tunnel for insertion of sensor probe. The tip of the sensor probe was left in the center of the tumor. Tumor oxygen level and blood flow were determined by OxyLite 2000 dual channel monitoring system with “bare-fibre” type sensor probe, which is designed for measuring tissue oxygen, temperature and blood flow using laser Doppler technique (Optonix, oxford, UK). The measurement was done in a real time basis (100 measurements per second) and the oxygen level and tumor blood flow were recording continuously. Because the initial trauma induced by needle and insertion of sensor probe can interfere with blood flow and oxygenation, each mouse was recorded first without treatment for at least 20 min before the mice was injected intraperitoneally with the tested VDA cis-3, 4′,5-trimethoxy-3′-aminostilbene (stilbene 5c) at 50 mg/kg. The tumor blood flow and oxygen level was then recorded for another 20 min after treatment.
In this study, we performed proof of concept study with VDA stilbene 5c to confirm that stilbene 5c induce tumor hypoxia. […]
There are several issues that need to be considered in order to interpret the results. […] All mice were thus recorded for at least 20 min to record the pre-treatment baseline. […]

UCI101 tumor xenografts = experiment: Tumor and normal organ perfusion by DCE-MRI (gadolinium accumulation); type: in vivo, nude mice; settings: stilbene 5c 50 mg/kg intraperitoneal, 4 hours after injection, same mice before vs after
Description: FIGS. 1A and B. Study of tumor perfusion using accumulation of gadolinium at 30 min after gadolinium injection. (A) T1-weighted images before and after stilbene 5c treatment in the same mouse. Nude mice with established subcutaneously UCI101 tumor xenografts were analyzed with DCE-MRI for tumor perfusion. DCE-MRI images were collected for 30 min after injection of gadolinium (OmniScan) into tail veins. The same mice were studied before and after stilbene 5c treatment to avoid individual variation. The left panels show the T1-weighted images before injection of gadolinium. The right panels show images at 30 min after injection of gadolinium. […] (B) Average of calculated gadolinium concentrations in tumor and muscle before and after stilbene 5c treatment. […]
Nude mice with tumor xenografts were anesthetized with 1% isoflurane and mixed oxygen. […] After the initial rate is established, subsequent MRI studies focused on the sustained increase in gadolinium signals, which also provide qualitative and quantitative information for tissue perfusion. […]
Stilbene 5c was investigated to examine whether it can suppress tumor blood flow and eventually lead to tumor hypoxia. […] After injected with 20 μl of gadolinium (OmniScan) via the tail vein, mice were analyzed with a rapid sequence MRI every minute for total of 30 min. […]

COc1cc(/C=C\c2ccc(OC)c(N)c2)cc(OC)c1 [stilbene 5c, cis-3, 4′, 5-trimethoxy-3′-aminostilbene]
tumor oxygen level after treatment ([1]; all three mice, within 20-30 min recording, baseline 15-60 mm Hg): less than 10 mm Hg | tumor blood flow after treatment, of the level before stilbene treatment ([1]; mice #1 and 3): less than 25% | tumor blood flow change ([1]; mouse #2 (low baseline flow 200-300)): significant in the beginning but subsequently recovered in some degree though still lower than baseline | concentration of gadolinium in tumor after stilbene 5c treatment (decreased to, average) (UCI101 tumor xenografts; 30 min after gadolinium, 6 mice): 62.8% | concentration of gadolinium in muscle after stilbene 5c treatment (UCI101 tumor xenografts): no significant change; also recorded: did not change
